This is an account of results in ChEMBL document CHEMBL3046295, “Quantitative structure activity relationship (QSAR) studies of a series of 2,5-disubstituted-1,3,4-oxadiazole derivatives as biologically potential compounds” (2011).

One assay has as its system Staphylococcus aureus. The assay is described as follows: Antibacterial activity against Staphylococcus aureus. It is filed as functional. The note with it: for MIC: Staphylococcus aureus.
In the next assay the test system is Escherichia coli. The assay is described as follows: Antibacterial activity against Escherichia coli. The class given is functional. The note with it: for MIC: Escherichia coli.

Structures are written as SMILES. Converted amounts (≈) assume the structure as drawn.

One may read the MIC as the smallest concentration in the dilution series that meets the test's criterion for growth inhibition. A lower MIC goes with a more susceptible organism. For the compound `O=C(CSc1nnc(Cn2nnc3ccccc32)o1)Nc1ccc(Cl)cc1`, in the assay with Staphylococcus aureus, the “-logMIC” value was 6.6737 and the minimum inhibitory concentration (MIC) came to 85 µg/mL (≈ 212 µM). Besides, in the assay on Escherichia coli, the “-logMIC” value was determined as 6.6031 and 100 µg/mL (≈ 249 µM) was the least that counted as inhibitory (MIC).

`O=C(CSc1nnc(-c2cccnc2)o1)Nc1ccc(Cl)cc1`: the figures for the “-logMIC” value in the assay with Staphylococcus aureus and in the assay on Escherichia coli were 6.41 and 6.5403, respectively. In addition, the figures for the MIC with Staphylococcus aureus and against Escherichia coli were 135 µg/mL (≈ 389 µM) and 100 µg/mL (≈ 288 µM), respectively.

In the assay on Staphylococcus aureus, `O=C(CSc1nnc(-c2cccnc2)o1)N1CCCCC1` gave a minimum inhibitory concentration (MIC) of 155 µg/mL (≈ 509 µM). Further, in the assay with Escherichia coli, the “-logMIC” value is on record as 6.229 and the lowest concentration to inhibit growth (MIC) was 180 µg/mL (≈ 591 µM).

As for `COc1ccc(NC(=O)CSc2nnc(-c3cccnc3)o2)cc1`, in the assay with Staphylococcus aureus, the “-logMIC” value is on record as 6.3879 and the MIC turned out to be 140 µg/mL (≈ 409 µM). In the assay on Escherichia coli, the “-logMIC” value stood at 6.3579 and the minimal inhibitory concentration (MIC) was 150 µg/mL (≈ 438 µM).

For `O=C(CSc1nnc(-c2cccnc2)o1)Nc1ccc(Br)cc1`, in the assay with Staphylococcus aureus, the “-logMIC” value was found to be 6.4953 and it took 125 µg/mL (≈ 319 µM) to inhibit growth (MIC). Further, in the assay with Escherichia coli, the “-logMIC” value is 6.6379 and the minimal inhibitory concentration (MIC) was determined as 90 µg/mL (≈ 230 µM).

Take `COc1ccc(NC(=O)CSc2nnc(Cn3nnc4ccccc43)o2)cc1`: in the assay on Staphylococcus aureus, the “-logMIC” value is 6.5008 and the MIC is 125 µg/mL (≈ 315 µM). In the assay on Escherichia coli, the “-logMIC” value is 6.5185 and it took 120 µg/mL (≈ 303 µM) to inhibit growth (MIC).

As for `O=C(CSc1nnc(Cn2nnc3ccccc32)o1)Nc1ccc(Br)cc1`, the “-logMIC” value in the assay on Staphylococcus aureus was found to be 6.607; in the assay on Escherichia coli, 6.7733. For the same compound, the figures for the minimal inhibitory concentration (MIC) against Staphylococcus aureus and in the assay with Escherichia coli were 110 µg/mL (≈ 247 µM) and 75 µg/mL (≈ 168 µM), respectively.

Consider `O=C(CSc1nnc(Cn2nnc3ccccc32)o1)Nc1c(Cl)cccc1Cl`, for which the “-logMIC” value in the assay with Staphylococcus aureus came to 6.5778; in the assay on Escherichia coli, 6.7354. Besides, the MIC came out at 115 µg/mL (≈ 264 µM) in the assay with Staphylococcus aureus and 80 µg/mL (≈ 184 µM) with Escherichia coli.

Take `Cc1cccc(C)c1NC(=O)CSc1nnc(Cn2nnc3ccccc32)o1`: in the assay on Staphylococcus aureus, the “-logMIC” value stood at 6.4816 and it took 130 µg/mL (≈ 330 µM) to inhibit growth (MIC). Also, in the assay on Escherichia coli, the “-logMIC” value came to 6.5163 and the minimal inhibitory concentration (MIC) is 120 µg/mL (≈ 304 µM).

Consider `O=C(CSc1nnc(Cn2nnc3ccccc32)o1)Nc1ccc(Cl)c(Cl)c1`, for which, in the assay on Staphylococcus aureus, the “-logMIC” value worked out at 6.5416 and the MIC came to 125 µg/mL (≈ 287 µM). In addition, in the assay with Escherichia coli, the “-logMIC” value was 6.6842 and the MIC was 90 µg/mL (≈ 207 µM).

Take `O=C(CCSc1nnc(Cn2nnc3ccccc32)o1)Nc1ccc(Cl)cc1`: in the assay on Staphylococcus aureus, the “-logMIC” value was found to be 6.5378 and the MIC is 120 µg/mL (≈ 289 µM). Further, in the assay with Escherichia coli, the “-logMIC” value is 6.5378 and the minimum inhibitory concentration (MIC) is 120 µg/mL (≈ 289 µM).

For `Cc1ccc(NC(=O)CCSc2nnc(Cn3nnc4ccccc43)o2)cc1`, in the assay with Staphylococcus aureus, the “-logMIC” value is listed as 6.5541 and it took 110 µg/mL (≈ 279 µM) to inhibit growth (MIC). For the same compound, in the assay with Escherichia coli, the “-logMIC” value was determined as 6.4986 and the MIC is 125 µg/mL (≈ 317 µM).

As to `O=C(CCSc1nnc(Cn2nnc3ccccc32)o1)Nc1ccc([N+](=O)[O-])cc1`, the results for the “-logMIC” value in the assay with Staphylococcus aureus and with Escherichia coli were 6.5677 and 6.587, respectively. The MIC against Staphylococcus aureus amounted to 115 µg/mL (≈ 270 µM); with Escherichia coli, 110 µg/mL (≈ 259 µM).

On to `O=C(CCSc1nnc(Cn2nnc3ccccc32)o1)Nc1ccc(F)cc1`, for which the “-logMIC” value in the assay on Staphylococcus aureus turned out to be 6.5787; in the assay with Escherichia coli, 6.6968. The minimal inhibitory concentration (MIC) in the assay on Staphylococcus aureus came to 105 µg/mL (≈ 264 µM); against Escherichia coli it was 80 µg/mL (≈ 201 µM).

As to `COc1ccc(NC(=O)CCSc2nnc(Cn3nnc4ccccc43)o2)cc1`, in the assay on Staphylococcus aureus, the “-logMIC” value was determined as 6.6128 and inhibition of growth (MIC) required 100 µg/mL (≈ 244 µM). In the assay with Escherichia coli, the “-logMIC” value was 6.6128 and the MIC came to 100 µg/mL (≈ 244 µM).

As to `O=C(CCSc1nnc(Cn2nnc3ccccc32)o1)Nc1ccc(Br)cc1`, in the assay with Staphylococcus aureus, the “-logMIC” value came to 6.7868 and the minimum inhibitory concentration (MIC) is 75 µg/mL (≈ 163 µM). In addition, in the assay with Escherichia coli, the “-logMIC” value was found to be 6.6618 and the MIC stood at 100 µg/mL (≈ 218 µM).

As to `O=C(CCSc1nnc(Cn2nnc3ccccc32)o1)Nc1c(Cl)cccc1Cl`, the “-logMIC” value is 6.5731 in the assay on Staphylococcus aureus and 6.698 with Escherichia coli. The results for the MIC in the assay with Staphylococcus aureus and against Escherichia coli were 120 µg/mL (≈ 267 µM) and 90 µg/mL (≈ 200 µM), respectively.

On to `Cc1cccc(C)c1NC(=O)CCSc1nnc(Cn2nnc3ccccc32)o1`, for which the “-logMIC” value in the assay with Staphylococcus aureus was determined as 6.5693; with Escherichia coli, 6.6107. Further, the MIC with Staphylococcus aureus amounted to 110 µg/mL (≈ 269 µM); in the assay with Escherichia coli, 100 µg/mL (≈ 245 µM).

On to `O=C(CCSc1nnc(Cn2nnc3ccccc32)o1)Nc1ccc(Cl)c(Cl)c1`, for which, in the assay with Staphylococcus aureus, the “-logMIC” value was 6.6109 and it took 110 µg/mL (≈ 245 µM) to inhibit growth (MIC). In addition, in the assay on Escherichia coli, the “-logMIC” value was 6.5731 and the minimal inhibitory concentration (MIC) stood at 120 µg/mL (≈ 267 µM).

As to `O=C(CSc1nnc(-c2cccnc2)o1)Nc1ccc([N+](=O)[O-])cc1`, in the assay on Staphylococcus aureus, the “-logMIC” value was 6.3766 and it took 150 µg/mL (≈ 420 µM) to inhibit growth (MIC). Moreover, in the assay with Escherichia coli, the “-logMIC” value amounted to 6.3913 and the minimal inhibitory concentration (MIC) worked out at 145 µg/mL (≈ 406 µM).

With `CCCNC(=O)CSc1nnc(-c2cccnc2)o1`, the “-logMIC” value amounted to 6.444 in the assay on Staphylococcus aureus and 6.3471 in the assay on Escherichia coli. Further, the figures for the minimum inhibitory concentration (MIC) against Staphylococcus aureus and with Escherichia coli were 100 µg/mL (≈ 359 µM) and 125 µg/mL (≈ 449 µM), respectively.

For the compound `O=C(CSc1nnc(-c2cccnc2)o1)N1CCOCC1`, in the assay on Staphylococcus aureus, the “-logMIC” value is on record as 6.4065 and the MIC was 120 µg/mL (≈ 392 µM). Also, in the assay with Escherichia coli, the “-logMIC” value was found to be 6.4443 and the MIC stood at 110 µg/mL (≈ 359 µM).

Take `CCCCNC(=O)CSc1nnc(-c2cccnc2)o1`: the “-logMIC” value worked out at 6.4877 with Staphylococcus aureus and 6.4047 in the assay with Escherichia coli. Further, the MIC against Staphylococcus aureus was 95 µg/mL (≈ 325 µM); against Escherichia coli it was 115 µg/mL (≈ 393 µM).

In the case of `O=C(CCSc1nnc(-c2cccnc2)o1)Nc1ccc(F)cc1`, in the assay with Staphylococcus aureus, the “-logMIC” value was 6.3061 and the minimal inhibitory concentration (MIC) was 170 µg/mL (≈ 494 µM). For the same compound, in the assay with Escherichia coli, the “-logMIC” value is reported as 6.3605 and the MIC stood at 150 µg/mL (≈ 436 µM).

`COc1ccc(NC(=O)CCSc2nnc(-c3cccnc3)o2)cc1`: in the assay on Staphylococcus aureus, the “-logMIC” value was determined as 6.4053 and it took 140 µg/mL (≈ 393 µM) to inhibit growth (MIC). In addition, in the assay on Escherichia coli, the “-logMIC” value came to 6.5514 and the lowest concentration to inhibit growth (MIC) was 100 µg/mL (≈ 281 µM).

In the case of `O=C(CCSc1nnc(-c2cccnc2)o1)Nc1ccc([N+](=O)[O-])cc1`, in the assay on Staphylococcus aureus, the “-logMIC” value is 6.5694 and the MIC was 100 µg/mL (≈ 269 µM). Also, in the assay with Escherichia coli, the “-logMIC” value is recorded as 6.4902 and the minimal inhibitory concentration (MIC) was 120 µg/mL (≈ 323 µM).

As to `O=C(CCSc1nnc(-c2cccnc2)o1)Nc1ccc(Br)cc1`, the MIC stood at 150 µg/mL (≈ 370 µM) against Staphylococcus aureus and 165 µg/mL (≈ 407 µM) with Escherichia coli.

For the compound `O=C(CCSc1nnc(-c2cccnc2)o1)Nc1ccc(Cl)cc1`, the “-logMIC” value in the assay on Staphylococcus aureus stood at 6.5575; in the assay with Escherichia coli, 6.2349. Further, the minimal inhibitory concentration (MIC) against Staphylococcus aureus came out at 100 µg/mL (≈ 277 µM); in the assay on Escherichia coli, 80 µg/mL (≈ 222 µM).

For `O=C(CCSc1nnc(-c2cccnc2)o1)Nc1c(Cl)cccc1Cl`, in the assay on Staphylococcus aureus, the “-logMIC” value turned out to be 6.4877 and the lowest concentration to inhibit growth (MIC) was 95 µg/mL (≈ 240 µM). In the assay on Escherichia coli, the “-logMIC” value came out at 6.4638 and the minimum inhibitory concentration (MIC) worked out at 170 µg/mL (≈ 430 µM).

On to `CCCNC(=O)CCSc1nnc(-c2cccnc2)o1`, for which the “-logMIC” value in the assay with Staphylococcus aureus is reported as 6.4445; in the assay on Escherichia coli it was 6.4069. For the same compound, the MIC is 115 µg/mL (≈ 393 µM) in the assay with Staphylococcus aureus and 110 µg/mL (≈ 376 µM) against Escherichia coli.

Take `CCCCNC(=O)CCSc1nnc(-c2cccnc2)o1`: in the assay on Staphylococcus aureus, the “-logMIC” value is recorded as 6.4246 and the lowest concentration to inhibit growth (MIC) was 120 µg/mL (≈ 392 µM). The compound further displayed a minimal inhibitory concentration (MIC) against Escherichia coli of 125 µg/mL (≈ 408 µM).

As to `O=C(CCSc1nnc(-c2cccnc2)o1)N1CCOCC1`, in the assay on Staphylococcus aureus, the “-logMIC” value is recorded as 6.3396 and it took 140 µg/mL (≈ 437 µM) to inhibit growth (MIC). In the assay with Escherichia coli, the “-logMIC” value was determined as 6.3718 and the lowest concentration to inhibit growth (MIC) was 130 µg/mL (≈ 406 µM).

Turning to `Cc1ccc(NC(=O)CSc2nnc(Cn3nnc4ccccc43)o2)cc1`, in the assay on Staphylococcus aureus, the “-logMIC” value worked out at 6.5006 and the MIC worked out at 120 µg/mL (≈ 315 µM). Besides, in the assay on Escherichia coli, the “-logMIC” value was 6.5384 and inhibition of growth (MIC) required 110 µg/mL (≈ 289 µM).

Turning to `O=C(CSc1nnc(Cn2nnc3ccccc32)o1)Nc1ccc([N+](=O)[O-])cc1`, in the assay with Staphylococcus aureus, the “-logMIC” value is 6.4677 and the MIC is 140 µg/mL (≈ 340 µM). Besides, in the assay on Escherichia coli, the “-logMIC” value is recorded as 6.5531 and the MIC came out at 115 µg/mL (≈ 280 µM).

In the case of `O=C(CSc1nnc(Cn2nnc3ccccc32)o1)Nc1ccc(F)cc1`, in the assay with Staphylococcus aureus, the “-logMIC” value is reported as 6.5843 and the MIC turned out to be 100 µg/mL (≈ 260 µM). Besides, in the assay with Escherichia coli, the “-logMIC” value was found to be 6.6549 and it took 85 µg/mL (≈ 221 µM) to inhibit growth (MIC).

As to `O=C(CSc1nnc(-c2cccnc2)o1)Nc1ccc(F)cc1`, the results for the “-logMIC” value in the assay on Staphylococcus aureus and with Escherichia coli were 6.4046 and 6.4216, respectively. Further, the results for the minimal inhibitory concentration (MIC) with Staphylococcus aureus and in the assay on Escherichia coli were 130 µg/mL (≈ 394 µM) and 125 µg/mL (≈ 378 µM), respectively.
